Test results as given in patent publication US20090232867A1, “Modified conductive surfaces having active substances attached thereto” (Elutex Ltd., priority 2004, published 2009).

Columns and labels:
[1] = Paclitaxel release from pyrrole-functionalized PLA nanoparticles in 0.1N phosphate buffer; type: physicochemical; settings: immersed in 0.1N phosphate buffer solution
Description: In a representative example, nanoparticles were prepared by dispersing a chloroform solution of a pyrrole polymer prepared as described hereinabove (0.1 gram), polylactic acid (0.4 grams, Mn=3,000) and paclitaxel (0.15 gram) in de-ionized water at room temperature with constant stirring.

[2] = Paclitaxel release from coated stent or plate into phosphate buffer pH 7.4 with 0.3% SDS, HPLC; type: physicochemical; settings: stents/plates coated with polypyrrole derivatives
Description: The release characteristic of the stent or plate was determined by placing drug-loaded device into buffer phosphate solution, pH 7.4, which contained 0.3% SDS, to increase the solubility of paclitaxel, and the daily release was determined by HPLC.

## CC(=O)O[C@H]1C(=O)[C@@]2(C)[C@H]([C@H](OC(=O)c3ccccc3)[C@]3(O)C[C@H](OC(=O)[C@H](O)[C@@H](NC(=O)c4ccccc4)c4ccccc4)C(C)=C1C3(C)C)[C@]1(OC(C)=O)CO[C@@H]1C[C@@H]2O [paclitaxel]
[1]
  release of paclitaxel from nanoparticles: released constantly from these particles during two weeks
[2]; after 3 days
  absorbed drug released into the buffer medium: about 50%
[2]
  duration of slow release of the remaining drug: over 3 weeks
